Active and inactive are the calls of the source. The calls are words filed in the database; no cut-off is given here.

Data set [1] addresses T1, 5-hydroxytryptamine receptor 2C (Homo sapiens) (UniProt P28335).
T1 sequence (whole entry): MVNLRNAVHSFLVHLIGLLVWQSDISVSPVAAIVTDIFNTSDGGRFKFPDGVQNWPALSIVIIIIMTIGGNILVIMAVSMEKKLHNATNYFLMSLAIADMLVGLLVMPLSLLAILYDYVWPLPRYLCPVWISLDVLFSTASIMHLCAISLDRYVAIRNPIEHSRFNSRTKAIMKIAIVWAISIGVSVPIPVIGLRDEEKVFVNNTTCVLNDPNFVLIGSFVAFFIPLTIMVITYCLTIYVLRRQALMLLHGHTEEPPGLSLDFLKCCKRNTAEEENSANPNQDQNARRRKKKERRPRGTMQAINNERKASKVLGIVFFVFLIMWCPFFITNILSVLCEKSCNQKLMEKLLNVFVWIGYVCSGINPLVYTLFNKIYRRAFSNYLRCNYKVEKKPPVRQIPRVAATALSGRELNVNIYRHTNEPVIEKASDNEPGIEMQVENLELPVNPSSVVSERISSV
The data set can be described thus: Agonist activity at human 5HT2C receptor expressed in CHO-K1 cells assessed as increase of fluorescence based calcium mobilization by FLIPR assay relative to control. In kind it is functional, cell-based. On the technique in general: Calcium flux is commonly read through the fluorescence of an indicator in the cells.

Data set [2] has as its target T2, 5-hydroxytryptamine receptor 2B (Homo sapiens, UniProt P41595). The data set is described as follows: Agonist activity at human 5HT2B receptor expressed in CHO-K1 cells assessed as increase of fluorescence based calcium mobilization by FLIPR assay. In kind it is functional, cell-based.
Data set [3] deals with T2, 5-hydroxytryptamine receptor 2B. The data set can be described thus: Agonist activity at human 5HT2B receptor expressed in CHO-K1 cells assessed as increase of fluorescence based calcium mobilization by FLIPR assay relative to control. In kind it is functional, cell-based.
The next data set has as its system Canis familiaris. The data set is described as follows: Increase of peak urethral pressure in iv dosed anesthetized dog stress urinary incontinence model. In kind it is functional, organism-based. The conditions noted are these: Canis lupus familiaris; Urethra.
Data set [4] deals with T2, 5-hydroxytryptamine receptor 2B. The data set can be described thus: Agonist activity at human 5HT2B receptor expressed in CHO-K1 cells assessed as increase of fluorescence based calcium mobilization at 10 uM by FLIPR assay relative to control. The format is functional, cell-based.
Data set [5] has as its target 5-hydroxytryptamine receptor 2A (Homo sapiens) (UniProt P28223). The data set is described as follows: Agonist activity at human recombinant 5HT2A receptor expressed in Swiss mouse 3T3 cells increase of fluorescence based calcium mobilization by FLIPR assay relative to control. The settings on record: NIH3T3. In kind it is functional, cell-based.
Data set [6] deals with T2, 5-hydroxytryptamine receptor 2B. The data set can be described thus: Agonist activity at human recombinant 5HT2B receptor expressed in Swiss mouse 3T3 cells assessed as increase of fluorescence based calcium mobilization at 10 uM by FLIPR assay. In kind it is functional, cell-based. The settings on record: NIH3T3.
A short description of data set [7]: Binding affinity to sodium channel site 2 at 10000 nM.
The nature of data set [8]: Binding affinity to L-type calcium channel diltiazem binding site at 10000 nM.
A short description of data set [9]: Binding affinity to L-type calcium channel verapamil binding site at 10000 nM.
A short description of data set [10]: Binding affinity to L-type Ca2+ channel dihydropyridine binding site at 10000 nM.
Data set [11] addresses T3, Muscarinic acetylcholine receptor M1 (Homo sapiens) (UniProt P11229).
T3 sequence (whole entry): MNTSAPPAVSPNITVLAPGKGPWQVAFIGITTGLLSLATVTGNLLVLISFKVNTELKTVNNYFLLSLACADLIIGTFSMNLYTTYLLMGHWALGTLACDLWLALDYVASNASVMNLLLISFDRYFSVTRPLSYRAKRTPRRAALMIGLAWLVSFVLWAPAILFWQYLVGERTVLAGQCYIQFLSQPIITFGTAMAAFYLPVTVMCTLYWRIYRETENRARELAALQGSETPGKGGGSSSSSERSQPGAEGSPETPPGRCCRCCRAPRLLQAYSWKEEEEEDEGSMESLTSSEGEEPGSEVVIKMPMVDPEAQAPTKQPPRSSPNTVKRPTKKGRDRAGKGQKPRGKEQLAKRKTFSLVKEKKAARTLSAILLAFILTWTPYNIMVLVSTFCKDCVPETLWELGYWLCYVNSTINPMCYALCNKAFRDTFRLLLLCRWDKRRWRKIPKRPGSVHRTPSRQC
The data set can be described thus: Agonist activity at human muscarinic M1 receptor up to 10 uM. In kind it is functional.

Data set [12] deals with T4, Muscarinic acetylcholine receptor M5 (Homo sapiens) (UniProt P08912).
T4 sequence (whole entry): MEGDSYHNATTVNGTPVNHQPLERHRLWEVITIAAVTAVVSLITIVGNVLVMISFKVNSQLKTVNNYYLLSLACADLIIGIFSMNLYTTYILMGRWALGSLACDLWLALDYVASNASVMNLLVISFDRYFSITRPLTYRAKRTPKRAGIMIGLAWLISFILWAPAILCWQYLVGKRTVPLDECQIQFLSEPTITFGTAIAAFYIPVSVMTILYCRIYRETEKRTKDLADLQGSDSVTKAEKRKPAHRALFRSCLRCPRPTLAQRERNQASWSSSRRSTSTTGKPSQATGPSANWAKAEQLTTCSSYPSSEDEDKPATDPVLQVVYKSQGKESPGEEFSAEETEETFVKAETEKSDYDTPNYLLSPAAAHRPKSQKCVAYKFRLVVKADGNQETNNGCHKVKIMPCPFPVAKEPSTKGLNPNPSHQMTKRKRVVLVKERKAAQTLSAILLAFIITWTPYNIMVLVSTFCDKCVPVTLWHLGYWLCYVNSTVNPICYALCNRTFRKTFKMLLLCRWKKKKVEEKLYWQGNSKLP
The data set is described as follows: Agonist activity at human muscarinic M5 receptor up to 10 uM. The format is functional.

Data set [13] addresses Voltage-gated sodium channel type V alpha polypeptide (Oryctolagus cuniculus) (UniProt Q2MZF0). The data set can be described thus: Inhibition of Nav1.5 in rabbit cardiac myocytes up to 100 uM. In kind it is cell-based.
Data set [14] concerns the target T5, 5-hydroxytryptamine receptor 2C (Canis lupus familiaris) (UniProt Q60F97).
T5 sequence (whole entry): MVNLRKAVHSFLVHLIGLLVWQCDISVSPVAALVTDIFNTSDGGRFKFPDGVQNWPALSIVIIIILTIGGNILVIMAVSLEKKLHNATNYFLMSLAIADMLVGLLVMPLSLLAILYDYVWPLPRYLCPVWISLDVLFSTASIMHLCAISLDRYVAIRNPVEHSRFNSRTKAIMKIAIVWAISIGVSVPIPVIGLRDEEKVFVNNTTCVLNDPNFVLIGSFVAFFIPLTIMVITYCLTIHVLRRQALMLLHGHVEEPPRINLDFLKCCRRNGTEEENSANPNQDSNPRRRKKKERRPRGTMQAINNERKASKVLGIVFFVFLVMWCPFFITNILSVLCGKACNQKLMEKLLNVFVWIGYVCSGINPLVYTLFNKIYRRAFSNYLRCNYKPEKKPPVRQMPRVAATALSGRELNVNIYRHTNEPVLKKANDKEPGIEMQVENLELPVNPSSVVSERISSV
The data set is described as follows: Agonist activity at dog 5HT2C receptor ralative to control. In kind it is functional.

For another data set, the system named is Rattus norvegicus. The data set can be described thus: Inhibition of 5HT2A receptor-mediated head twitches in rat at 10 mg/kg, po. In kind it is functional, organism-based. Also on record: dose 10 mg/kg.
The target of data set [15] is 5-hydroxytryptamine receptor 2A (Canis lupus familiaris) (UniProt O46635). The data set is described as follows: Agonist activity at 5HT2A receptor in dog femoral artery relative to control. In kind it is functional, tissue-based.
In data set [16] the target is T6, 5-hydroxytryptamine receptor 2C (Homo sapiens, UniProt P28335).
T6 sequence (P28335 whole entry): T1 sequence (whole entry)
The data set is described as follows: Agonist activity at human 5HT2C receptor expressed in CHO-K1 cells assessed as increase of fluorescence based calcium mobilization by FLIPR assay. In kind it is functional, cell-based.

Data set [17] has as its target T1, 5-hydroxytryptamine receptor 2C (Homo sapiens). The data set can be described thus: Agonist activity at human 5HT2C receptor expressed in HEK293 cells assessed as 5-HT-induced maximum response by inositol phosphate accumulation assay. In kind it is functional, cell-based.
Data set [18] shares this target. The data set can be described thus: Agonist activity at human 5HT2C receptor expressed in CHO-K1 cells assessed as increase of fluorescence based calcium mobilization at 10 uM by FLIPR assay relative to control. In kind it is functional, cell-based.
Data set [19] deals with T6, 5-hydroxytryptamine receptor 2C. The data set can be described thus: Agonist activity at human 5HT2C receptor expressed in Swiss mouse 3T3 cells with low expression increase of fluorescence based calcium mobilization by FLIPR assay. In kind it is functional, cell-based.
Data set [20] concerns the target T1, 5-hydroxytryptamine receptor 2C (Homo sapiens). The data set is described as follows: Agonist activity at human recombinant 5HT2C receptor expressed in Swiss mouse 3T3 cells with low expression increase of fluorescence based calcium mobilization by FLIPR assay relative to control. The format is functional, cell-based. The conditions noted are these: NIH3T3.

Data set [21] addresses T6, 5-hydroxytryptamine receptor 2C. The data set can be described thus: Displacement of [3H][…] from human 5HT2C receptor expressed in Swiss mouse 3T3 cells by scintillation proximity assay. In kind it is cell-based, NIH3T3. (Displacement assays read how much labelled ligand stays bound in the presence of the test substance.)
Data set [22] can be described thus: Aqueous solubility of the compound at pH 1.5 to 11.7. The format is physicochemical. The conditions noted are these: buffer.
The nature of data set [23]: Chemical stability of compound at pH 1 to 12. In kind it is physicochemical. The settings on record: buffer.

T2 sequence (P41595 whole entry): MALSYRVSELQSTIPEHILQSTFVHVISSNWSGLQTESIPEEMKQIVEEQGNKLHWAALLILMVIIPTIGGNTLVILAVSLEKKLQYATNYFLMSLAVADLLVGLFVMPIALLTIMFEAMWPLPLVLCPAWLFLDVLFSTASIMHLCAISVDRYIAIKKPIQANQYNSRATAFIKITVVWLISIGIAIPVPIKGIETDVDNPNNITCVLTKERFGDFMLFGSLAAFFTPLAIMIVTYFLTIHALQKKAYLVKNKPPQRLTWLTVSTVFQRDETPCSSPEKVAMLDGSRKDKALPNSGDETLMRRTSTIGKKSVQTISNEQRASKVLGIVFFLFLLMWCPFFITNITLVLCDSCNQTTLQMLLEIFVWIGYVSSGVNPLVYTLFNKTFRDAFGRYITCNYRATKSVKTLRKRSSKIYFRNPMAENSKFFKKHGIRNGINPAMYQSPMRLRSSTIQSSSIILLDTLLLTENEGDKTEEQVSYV
Chain of 5-hydroxytryptamine receptor 2A (Canis lupus familiaris) (O46635 whole entry): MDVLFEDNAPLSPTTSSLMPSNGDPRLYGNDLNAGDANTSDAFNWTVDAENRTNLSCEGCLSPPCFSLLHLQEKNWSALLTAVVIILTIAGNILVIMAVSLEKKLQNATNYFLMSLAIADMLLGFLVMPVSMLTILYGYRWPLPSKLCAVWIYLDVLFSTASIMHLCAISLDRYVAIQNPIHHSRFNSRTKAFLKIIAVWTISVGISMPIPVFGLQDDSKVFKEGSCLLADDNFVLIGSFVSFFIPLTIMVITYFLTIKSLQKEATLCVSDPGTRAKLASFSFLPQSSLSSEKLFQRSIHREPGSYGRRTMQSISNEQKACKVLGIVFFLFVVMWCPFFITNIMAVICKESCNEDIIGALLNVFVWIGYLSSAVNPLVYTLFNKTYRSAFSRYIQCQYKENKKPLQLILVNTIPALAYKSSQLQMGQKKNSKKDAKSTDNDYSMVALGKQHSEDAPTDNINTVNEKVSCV
Chain of 5-hydroxytryptamine receptor 2A (Homo sapiens) (P28223 whole entry): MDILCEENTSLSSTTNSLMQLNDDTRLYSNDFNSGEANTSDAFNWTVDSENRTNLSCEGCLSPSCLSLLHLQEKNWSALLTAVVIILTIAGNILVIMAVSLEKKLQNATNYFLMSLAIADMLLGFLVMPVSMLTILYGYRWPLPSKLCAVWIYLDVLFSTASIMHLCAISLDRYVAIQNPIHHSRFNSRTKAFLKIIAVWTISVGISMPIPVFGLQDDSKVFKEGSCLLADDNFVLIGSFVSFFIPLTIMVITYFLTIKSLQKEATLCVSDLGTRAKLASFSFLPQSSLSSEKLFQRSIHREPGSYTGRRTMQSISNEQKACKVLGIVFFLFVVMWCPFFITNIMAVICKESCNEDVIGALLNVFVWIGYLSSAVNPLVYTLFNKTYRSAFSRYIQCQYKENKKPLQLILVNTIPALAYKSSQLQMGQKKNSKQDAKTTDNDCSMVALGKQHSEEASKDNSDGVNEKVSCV

Turning to `FC(F)(F)c1cccc(Cc2ncc3c(n2)CCNCC3)c1`, the Emax in data set [1] amounted to 44%; in data set [3] it was 63%. In addition, the EC50 in data set [2] worked out at 160 nM.
In the same order, the values of `Clc1cccc(Cc2ncc3c(n2)CCNCC3)c1` are 56%, 50% and 30 nM.
In the case of `c1ccc(CCCc2ncc3c(n2)CNCC3)cc1`, in data set [1], the outcome was inactive.
For `c1ccc(Cc2ncc3c(n2)CCNCC3)cc1`, the Activity result was “Dose-dependent effect” in the data set on Canis familiaris and 81% in data set [14]. For the same molecule, the Emax in data set [4] worked out at 33%; in [5] it was 82%; in [6], 33%; in data set [15], 51%. Further, the inhibition in data set [7], in data set [8], in data set [9] and in [10] was less than 20% throughout. Besides, the outcome in data set [11], in [12] and in [13] was inactive. The inhibition entry with Rattus norvegicus was “inactive”.
Turning to `c1ccc(CCc2ncc3c(n2)CNCC3)cc1`, the result in data set [1] was inactive.
For `c1ccc(CCCc2ncc3c(n2)CCNC3)cc1`, the EC50 in data set [16] came out at 1900 nM. Further, the maximal response (Emax) in data set [1] came to 100%.
`Fc1ccccc1Cc1ncc2c(n1)CCNCC2`: the Emax is 65% in [1] and 43% in [3]. Moreover, the EC50 in data set [2] was determined as 220 nM.
For `c1ccc(-c2ncc3c(n2)CCNC3)cc1`, in [1], the outcome was inactive.
`c1ccc(-c2ncc3c(n2)CCNCC3)cc1`: in [1], the result was inactive.
As for `C[C@H]1CNCCc2ccc(Cl)cc21`, the Emax was 84% in data set [1] and 100% in [17]. In data set [14], this molecule showed an Activity of 82%.
In the case of `c1ccc(-c2ncc3c(n2)CNCC3)cc1`, the EC50 in [16] came to 380 nM. Also, in data set [1], the Emax amounted to 92%.
As for `c1ccc(CCc2ncc3c(n2)CCNC3)cc1`, the Emax in data set [18] was determined as 50%.
As for `c1ccc(Cc2ncc3c(n2)CCNC3)cc1`, the Emax in [18] turned out to be 64%.
Take `c1ccc(CCc2ncc3c(n2)CCNCC3)cc1`: the EC50 came to 110 nM in data set [16] and 4800 nM in data set [19]. Also, the Emax turned out to be 99% in data set [1] and 40% in data set [20].
With `Cc1cccc(Cc2ncc3c(n2)CCNCC3)c1`, the Emax in data set [1] came to 84%; in data set [3], 62%. Moreover, the EC50 in data set [2] was determined as 410 nM.
In the same order, the values of `Clc1ccc(Cc2ncc3c(n2)CCNCC3)cc1` are 65%, 62% and 60 nM.
In the same order, the values of `Cc1ccccc1Cc1ncc2c(n1)CCNCC2` are 70%, 56% and 1200 nM.
In the same order, the values of `Fc1ccc(Cc2ncc3c(n2)CCNCC3)cc1` are 60%, 90% and 610 nM.
As to `FC(F)(F)c1ccccc1Cc1ncc2c(n1)CCNCC2`, the Emax in [18] and in [4] was 15% in each case.
Take `Clc1ccccc1Cc1ncc2c(n1)CCNCC2`: the Emax was found to be 38% in data set [18] and 36% in data set [3]. The molecule also gave a Ki in [21] of 1850 nM. Moreover, the EC50 in [2] is 178 nM.
Turning to `Fc1cccc(Cc2ncc3c(n2)CCNCC3)c1`, the Emax in data set [1] was 67%; in data set [3], 66%. Further, the EC50 in [2] is 183 nM.
As for `Cc1ccc(Cc2ncc3c(n2)CCNCC3)cc1`, the Emax is 63% in data set [1] and 80% in [3]. Also, the EC50 in data set [2] worked out at 164 nM.
On to `O=C(O)/C=C/C(=O)O.c1ccc(Cc2ncc3c(n2)CCNCC3)cc1`, for which the solubility in [22] was more than 10000 µg/mL. For the same molecule, the Stability entry in data set [23] is “Stable”.
In the case of `c1ccc(Cc2ncc3c(n2)CNCC3)cc1`, the Emax in data set [18] came to 27%.

Usually Emax stands for the size of the effect at its maximum, as opposed to the concentration needed. In general, EC50 refers to the concentration giving half of the maximal effect. As usually defined, the inhibition is the share of the control response that was lost under treatment. In general, Ki refers to the dissociation constant of the complex between target and ligand, obtained from inhibition or displacement. The low end stands for higher affinity, the high end for lower affinity. Broadly, the solubility is the concentration that dissolves in the medium under given conditions. The low end stands for little dissolved substance, the high end for much dissolved substance.
